Measurements taken from the NIST ThermoML archive (doi:10.1016/j.jct.2017.08.004).

Experiment: molar heat capacity at constant pressure
Conditions: 101.33 kPa, Crystal, Small sample (50 mg) DSC

O[C@H]1[C@H](O)[C@@H](O)[C@H](O)[C@@H](O)[C@H]1O [cis-1,2,3,5-trans-4,6-cyclohexanehexol]
Conditions | molar heat capacity at constant pressure [J/K/mol]
315.15 K | 232.92
316.15 K | 233.85
317.15 K | 235
318.15 K | 235.92
319.15 K | 236.78
320 K | 237.36
320.15 K | 237.59
321.15 K | 238.68
322.15 K | 239.43
323.15 K | 240.32
324.15 K | 241.22
325 K | 241.8
325.15 K | 242.06
326.15 K | 242.94
327.15 K | 243.8
328.15 K | 244.59
329.15 K | 245.47
330 K | 246.17
330.15 K | 246.24
331.15 K | 247.08
332.15 K | 247.89
333.15 K | 248.82
334.15 K | 249.61
335 K | 250.49
335.15 K | 250.35
336.15 K | 251.33
337.15 K | 251.96
338.15 K | 252.7
339.15 K | 253.75
340 K | 254.75
340.15 K | 254.49
341.15 K | 255.37
342.15 K | 256.24
343.15 K | 257.08
344.15 K | 258
345 K | 258.97
345.15 K | 258.77
346.15 K | 259.66
347.15 K | 260.52
348.15 K | 261.32
349.15 K | 262.12
350 K | 263.15
350.15 K | 262.98
351.15 K | 263.82
352.15 K | 264.56
353.15 K | 265.46
354.15 K | 266.43
355 K | 267.28
355.15 K | 268.62
356.15 K | 269.08
357.15 K | 269.64
358.15 K | 270.31
359.15 K | 271.05
360 K | 271.38
360.15 K | 271.91
361.15 K | 272.57
362.15 K | 273.45
363.15 K | 274.41
364.15 K | 275.15
365 K | 275.43
365.15 K | 275.9
366.15 K | 276.72
367.15 K | 277.6
368.15 K | 278.26
369.15 K | 279.12
370 K | 279.44
370.15 K | 280
371.15 K | 280.66
372.15 K | 281.41
373.15 K | 282.03
374.15 K | 282.8
375 K | 283.41
375.15 K | 283.66
376.15 K | 284.41
377.15 K | 285.16
378.15 K | 286.02
379.15 K | 286.77
380 K | 287.33
380.15 K | 287.5
381.15 K | 288.2
382.15 K | 289.07
383.15 K | 289.93
384.15 K | 290.58
385 K | 291.21
385.15 K | 291.5
386.15 K | 292.25
387.15 K | 292.92
388.15 K | 293.5
389.15 K | 294.35
390 K | 295.04
390.15 K | 295.24
391.15 K | 295.7
392.15 K | 296.49
393.15 K | 297.22
394.15 K | 297.96
395 K | 298.83
395.15 K | 298.67
396.15 K | 299.31
397.15 K | 300.06
398.15 K | 300.77
399.15 K | 301.51
400 K | 302.58
400.15 K | 302.31
401.15 K | 303.15
402.15 K | 303.73
403.15 K | 304.44
404.15 K | 305.17
405 K | 306.28
405.15 K | 306.03
406.15 K | 306.79
407.15 K | 307.48
408.15 K | 308.4
409.15 K | 309.1
410 K | 309.94
410.15 K | 309.8
411.15 K | 310.58
412.15 K | 311.34
413.15 K | 311.98
414.15 K | 312.89
415 K | 313.58
